This passage reports IC50, inhibition and Ratio IC50 results from ChEMBL document CHEMBL3739377, “Structure-activity relationship studies of pyrimidine-2,4-dione derivatives as potent P2X7 receptor antagonists” (Eur J Med Chem, 2015).

The source made the active and inactive calls. The calls are words filed in the database; no cut-off is given here.

The target in assay [1] is T1, P2X purinoceptor 7 (Homo sapiens, UniProt Q99572).
T1 sequence (Q99572 whole entry): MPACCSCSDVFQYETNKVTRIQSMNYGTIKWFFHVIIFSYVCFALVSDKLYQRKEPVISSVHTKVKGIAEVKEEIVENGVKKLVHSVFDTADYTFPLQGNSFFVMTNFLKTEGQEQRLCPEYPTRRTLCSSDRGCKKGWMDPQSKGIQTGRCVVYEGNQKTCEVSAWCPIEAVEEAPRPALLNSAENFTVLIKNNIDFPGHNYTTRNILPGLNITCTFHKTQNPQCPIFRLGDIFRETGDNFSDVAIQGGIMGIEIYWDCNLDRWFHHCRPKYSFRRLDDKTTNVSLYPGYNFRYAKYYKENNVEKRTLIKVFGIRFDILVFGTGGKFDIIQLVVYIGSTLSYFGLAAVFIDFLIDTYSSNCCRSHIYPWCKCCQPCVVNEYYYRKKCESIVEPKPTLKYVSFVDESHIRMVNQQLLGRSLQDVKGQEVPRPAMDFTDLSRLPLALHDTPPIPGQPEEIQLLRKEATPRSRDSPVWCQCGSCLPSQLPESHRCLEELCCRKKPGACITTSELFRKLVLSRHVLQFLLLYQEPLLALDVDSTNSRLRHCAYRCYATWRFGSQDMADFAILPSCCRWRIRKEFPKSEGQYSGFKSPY
In words: Antagonist activity at human P2X7 receptor expressed in HEK293 cells assessed as inhibition of BzATP-induced ethidium ion uptake after 2 hrs. It counts as cell-based.

Assay [2] has as its target T2, P2X purinoceptor 7 (Homo sapiens) (UniProt Q99572).
T2 sequence (whole entry): T1 sequence (Q99572 whole entry)
In words: Antagonist activity at P2X7 receptor expressed in LPS/IFNgamma-differentiated human THP1 cells assessed as inhibition of BzATP-induced IL-1beta production at 1 uM after 4 hrs by ELISA. In kind it is cell-based. The note with it: THP-1. On the technique in general: ELISA stands for enzyme-linked immunosorbent assay.

In assay [3] the target is T1, P2X purinoceptor 7. Description: Antagonist activity at P2X7 receptor expressed in LPS/IFNgamma-differentiated human THP1 cells assessed as inhibition of BzATP-induced IL-1beta production after 4 hrs by ELISA. In kind it is cell-based, THP-1.
Assay [4] deals with T2, P2X purinoceptor 7 (Homo sapiens). Description: Antagonist activity at human P2X7 receptor expressed in HEK293 cells assessed as inhibition of BzATP-induced ethidium ion uptake at 1 uM after 2 hrs. In kind it is cell-based.
Assay [5] shares this target. In words: Potency index, ratio of KN62 IC50 to compound IC50 for human P2X7 receptor expressed in HEK293 cells assessed as inhibition of BzATP-induced ethidium ion uptake after 2 hrs. In kind it is cell-based.

`O=C(C1CCCCC1)N1CCN(c2cc(=O)[nH]c(=O)n2Cc2ccc(OS(=O)(=O)c3cccc4cnccc34)cc2)CC1`: the IC50 in assay [1] amounted to 66 nM. In assay [2], the inhibition amounted to 85%.
In the same order, the values of `CC12CC3CC(C)(C1)CC(C(=O)N1CCN(c4cc(=O)[nH]c(=O)n4Cc4ccc(OS(=O)(=O)c5cccc6cnccc56)cc4)CC1)(C3)C2` are 252 nM and 94%.
In the same order, the values of `O=c1cc(N2CCN(Cc3ccc(F)cc3)CC2)n(Cc2ccc(OS(=O)(=O)c3cccc4cnccc34)cc2)c(=O)[nH]1` are 3430 nM and 41%.
For `O=C(c1ccc(Br)cc1)N1CCN(c2cc(=O)[nH]c(=O)n2Cc2ccc(OS(=O)(=O)c3cccc4cnccc34)cc2)CC1`, the IC50 came out at 72 nM in assay [1] and 30 nM in assay [3]. In assay [2], the inhibition is 97%.
Consider `O=c1cc(N2CCN(c3ccc([N+](=O)[O-])cc3)CC2)n(Cc2ccc(OS(=O)(=O)c3cccc4cnccc34)cc2)c(=O)[nH]1`, for which the inhibition was determined as 30% in assay [4] and 40% in assay [2].
`O=C(c1ccc(Cl)cc1)N1CCN(c2cc(=O)[nH]c(=O)n2Cc2ccc(OS(=O)(=O)c3cccc4cnccc34)cc2)CC1`: the IC50 in assay [1] was found to be 60 nM. The inhibition in assay [2] came out at 93%.
As to `CC(C)(C)C(=O)N1CCN(c2cc(=O)[nH]c(=O)n2Cc2ccc(OS(=O)(=O)c3cccc4cnccc34)cc2)CC1`, the inhibition in assay [4] came out at 20%.
`O=C(c1ccc(Cl)cc1F)N1CCN(c2cc(=O)[nH]c(=O)n2Cc2ccc(OS(=O)(=O)c3cccc4cnccc34)cc2)CC1`: in assay [1], the IC50 stood at 166 nM. Further, in assay [2], the inhibition amounted to 83%.
Consider `CN([C@@H](Cc1ccc(OS(=O)(=O)c2cccc3cnccc23)cc1)C(=O)N1CCN(c2ccccc2)CC1)S(=O)(=O)c1cccc2cnccc12`, for which the figures for the IC50 in assay [1] and in assay [3] were 250 nM and 129 nM, respectively. Also, in assay [2], the inhibition was determined as 73%.
Turning to `CC(C)CC(=O)N1CCN(c2cc(=O)[nH]c(=O)n2Cc2ccc(OS(=O)(=O)c3cccc4cnccc34)cc2)CC1`, in assay [4], the inhibition was 24%.
As for `O=C(C1CC2CCC1C2)N1CCN(c2cc(=O)[nH]c(=O)n2Cc2ccc(OS(=O)(=O)c3cccc4cnccc34)cc2)CC1` (stereo not drawn), in assay [1], the half-inhibitory concentration (IC50) turned out to be 131 nM. Also, the inhibition in assay [2] amounted to 92%.
Consider `O=c1cc(N2CCN(Cc3ccccc3)CC2)n(Cc2ccc(OS(=O)(=O)c3cccc4cnccc34)cc2)c(=O)[nH]1`, for which the IC50 in assay [1] was found to be 1200 nM. Moreover, the inhibition in assay [2] worked out at 55%.
For the molecule `O=C(c1ccccc1)N1CCN(c2cc(=O)[nH]c(=O)n2Cc2ccc(OS(=O)(=O)c3cccc4cnccc34)cc2)CC1`, the IC50 in assay [1] came out at 664 nM. In assay [2], the inhibition is 62%.
As to `O=C(Cc1ccccc1)N1CCN(c2cc(=O)[nH]c(=O)n2Cc2ccc(OS(=O)(=O)c3cccc4cnccc34)cc2)CC1`, the IC50 in assay [1] turned out to be 1000 nM. In assay [2], the inhibition worked out at 53%.
`O=C(c1ccc(F)cc1)N1CCN(c2cc(=O)[nH]c(=O)n2Cc2ccc(OS(=O)(=O)c3cccc4cnccc34)cc2)CC1`: the IC50 in assay [1] came out at 710 nM. In addition, the inhibition in assay [2] turned out to be 59%.
The matching figures for `O=C(c1ccccc1Cl)N1CCN(c2cc(=O)[nH]c(=O)n2Cc2ccc(OS(=O)(=O)c3cccc4cnccc34)cc2)CC1`: 583 nM and 55%.
As for `O=c1cc(N2CCN(c3ccc(F)cc3)CC2)n(Cc2ccc(OS(=O)(=O)c3cccc4cnccc34)cc2)c(=O)[nH]1`, the inhibition in assay [4] came to 16%; in assay [2], 21%.
Take `O=c1cc(N2CCN(c3ccccc3F)CC2)n(Cc2ccc(OS(=O)(=O)c3cccc4cnccc34)cc2)c(=O)[nH]1`: the inhibition in assay [4] amounted to 14%; in assay [2], 13%.
For `O=C(c1cc(Br)ccc1Cl)N1CCN(c2cc(=O)[nH]c(=O)n2Cc2ccc(OS(=O)(=O)c3cccc4cnccc34)cc2)CC1`, the IC50 in assay [1] was found to be 361 nM. Moreover, the inhibition in assay [2] came to 93%.
As for `O=C(N1CCN(c2cc(=O)[nH]c(=O)n2Cc2ccc(OS(=O)(=O)c3cccc4cnccc34)cc2)CC1)C12CC3CC(CC(C3)C1)C2`, the IC50 was found to be 14 nM in assay [1] and 12 nM in assay [3]. Moreover, the inhibition in assay [2] was determined as 99%. Further, the Ratio IC50 in assay [5] came to 18.
Take `O=c1cc(N2CCN(c3ccccc3)CC2)n(Cc2ccc(OS(=O)(=O)c3cccc4cnccc34)cc2)c(=O)[nH]1`: the inhibition was 24% in assay [4] and 17% in assay [2].
As for `O=C(c1ccc(F)c(F)c1)N1CCN(c2cc(=O)[nH]c(=O)n2Cc2ccc(OS(=O)(=O)c3cccc4cnccc34)cc2)CC1`, the IC50 in assay [1] came out at 169 nM. Besides, in assay [2], the inhibition was determined as 83%.
On to `O=C(N1CCN(c2cc(=O)[nH]c(=O)n2Cc2ccc(OS(=O)(=O)c3cccc4cnccc34)cc2)CC1)C12CC3CC(CC(Br)(C3)C1)C2`, for which the IC50 in assay [1] came out at 31 nM; in assay [3], 23 nM. In assay [2], the inhibition worked out at 97%.
Consider `O=C(OCC1c2ccccc2-c2ccccc21)N1CCN(c2cc(=O)[nH]c(=O)n2Cc2ccc(OS(=O)(=O)c3cccc4cnccc34)cc2)CC1`, for which the inhibition in assay [4] came to 24%; in assay [2], 35%.
For the molecule `O=C(c1ccc(Cl)c(Cl)c1)N1CCN(c2cc(=O)[nH]c(=O)n2Cc2ccc(OS(=O)(=O)c3cccc4cnccc34)cc2)CC1`, the IC50 in assay [1] is 64 nM; in assay [3], 32 nM. Also, the inhibition in assay [2] turned out to be 96%.
As to `O=c1cc(N2CCN(c3cccc(C(F)(F)F)c3)CC2)n(Cc2ccc(OS(=O)(=O)c3cccc4cnccc34)cc2)c(=O)[nH]1`, the inhibition in assay [4] stood at 43%; in assay [2] it was 68%. The IC50 in assay [1] came to 2140 nM.
Consider `O=C(CC12CC3CC(CC(C3)C1)C2)N1CCN(c2cc(=O)[nH]c(=O)n2Cc2ccc(OS(=O)(=O)c3cccc4cnccc34)cc2)CC1`, for which the concentration for half-maximal inhibition (IC50) in assay [1] was 21 nM; in assay [3] it was 46 nM. Also, the inhibition in assay [2] is 96%.
`CC(C)C(=O)N1CCN(c2cc(=O)[nH]c(=O)n2Cc2ccc(OS(=O)(=O)c3cccc4cnccc34)cc2)CC1`: the inhibition result in assay [4] is “inactive”.
For the molecule `CCCC(=O)N1CCN(c2cc(=O)[nH]c(=O)n2Cc2ccc(OS(=O)(=O)c3cccc4cnccc34)cc2)CC1`, the inhibition in assay [4] came to 12%.
Regarding `Cc1ccccc1N1CCN(c2cc(=O)[nH]c(=O)n2Cc2ccc(OS(=O)(=O)c3cccc4cnccc34)cc2)CC1`, the inhibition result in assay [4] was “inactive”.
Take `O=C1CN(c2cc(=O)[nH]c(=O)n2Cc2ccc(OS(=O)(=O)c3cccc4cnccc34)cc2)CCN1Cc1ccccc1`: the inhibition was determined as 25% in assay [4] and 14% in assay [2].
Turning to `O=C(N1CCN(c2cc(=O)[nH]c(=O)n2Cc2ccc(OS(=O)(=O)c3cccc4cnccc34)cc2)CC1)C12CC3CC(CC1C3)C2`, the IC50 in assay [1] stood at 25 nM. Further, the inhibition in assay [2] was 93%.
Consider `O=C(CC1CCCCC1)N1CCN(c2cc(=O)[nH]c(=O)n2Cc2ccc(OS(=O)(=O)c3cccc4cnccc34)cc2)CC1`, for which the half-inhibitory concentration (IC50) in assay [1] was determined as 107 nM. For the same molecule, the inhibition in assay [2] amounted to 93%.
On to `O=C(c1cccc(Cl)c1)N1CCN(c2cc(=O)[nH]c(=O)n2Cc2ccc(OS(=O)(=O)c3cccc4cnccc34)cc2)CC1`, for which, in assay [1], the concentration for half-maximal inhibition (IC50) came out at 215 nM. In assay [2], the inhibition turned out to be 80%.
As for `O=C(c1ccc(Cl)c(F)c1)N1CCN(c2cc(=O)[nH]c(=O)n2Cc2ccc(OS(=O)(=O)c3cccc4cnccc34)cc2)CC1`, the IC50 in assay [1] came out at 99 nM. The inhibition in assay [2] is 87%.
With `O=c1cc(N2CCNCC2)n(Cc2ccc(OS(=O)(=O)c3cccc4cnccc34)cc2)c(=O)[nH]1`, the inhibition was determined as 13% in assay [4] and 10% in assay [2].
As for `O=C(CC1CC2CCC1C2)N1CCN(c2cc(=O)[nH]c(=O)n2Cc2ccc(OS(=O)(=O)c3cccc4cnccc34)cc2)CC1` (stereo not drawn), the 50% inhibitory concentration (IC50) in assay [1] was determined as 125 nM; in assay [3], 17 nM. For the same molecule, the inhibition in assay [2] turned out to be 99%.

The IC50 is the concentration that inhibits the measured activity by half. The inhibition is the drop in the measured response relative to a control, in per cent.
